Experiments:
cell surface TrkA = target: T1, cell surface TrkA (Homo sapiens, UniProt P04629); test: FACScan competition of mAb 5C3 binding on 4-3.6 cells; settings: for % Maximal binding of mAb 5C3: mAb 1 nM
T1 construct: expressed in transfected cells
Source text: (§1) The 4-3.6 cells are B104 cells stably transfected with human trkA cDNA, and express equal levels of p75 and TrkA (TrkA+ p75+). For screening agents that activate or antagonize TrkC receptors, NIH3T3 fibroblasts were stably transfected with human TrkC cDNA. These cells respond to the ligand NT-3. For screening agents that activate or antagonize TrkA receptors, NIH3T3 fibroblasts were stably transfected with human TrkA cDNA. These cells respond to the ligand NGF.
(§2) FACScan binding assays: 4-3.6 cells (2×10^5) in FACScan binding buffer (PBS, 0.5% BSA, and 0.1% NaN3) were immunostained as described (Saragovi et al., 1998). Saturating anti-TrkA mAb 5C3, or anti-p75 mAb MC192, or control non-binding IgGs were added to cells for 1 hour at 4° C., in the presence or absence of D3 as competitor. Excess primary antibody was washed off, and cells were immunostained with fluorescinated goat-anti-mouse IgG secondary antibody. Cells were acquired on a FACScan and mean channel fluorescence of bell-shaped histograms were analyzed using the LYSIS II program.

p75 NGF receptor subunit = target: T2, p75 NGF receptor subunit (Rattus norvegicus, UniProt P07174); test: FACScan competition of anti-p75 mAb MC192 binding on 4-3.6 cells; settings: mAb 1 nM; competitor 40 μM
T2 construct: B104 rat neuroblastomas express p75 receptors; endogenous in cells
T2 sequence (P07174 30-425): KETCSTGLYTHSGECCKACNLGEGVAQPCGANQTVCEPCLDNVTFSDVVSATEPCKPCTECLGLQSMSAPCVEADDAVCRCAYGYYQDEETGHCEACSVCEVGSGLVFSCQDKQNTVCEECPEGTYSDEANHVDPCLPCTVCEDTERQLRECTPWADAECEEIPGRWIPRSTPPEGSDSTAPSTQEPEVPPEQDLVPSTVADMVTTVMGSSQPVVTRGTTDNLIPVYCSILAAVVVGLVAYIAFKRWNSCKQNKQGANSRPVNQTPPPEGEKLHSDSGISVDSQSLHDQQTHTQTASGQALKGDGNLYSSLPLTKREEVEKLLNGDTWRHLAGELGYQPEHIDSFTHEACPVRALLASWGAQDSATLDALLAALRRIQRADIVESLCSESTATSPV
Source text: as §1, §2

TrkA-ECD [1] = target: T3, TrkA-ECD (Homo sapiens, UniProt P04629); test: ELISA competition of mAb 5C3 binding to immobilized TrkA-ECD; settings: for % Binding of mAb 5C3 to TrkA-ECD: mAb 5C3 2 nM
T3 construct: pure soluble TrkA extracellular domain (TrkA-ECD) produced in baculovirus; made in house
T3 sequence (P04629 33-423 limits assumed): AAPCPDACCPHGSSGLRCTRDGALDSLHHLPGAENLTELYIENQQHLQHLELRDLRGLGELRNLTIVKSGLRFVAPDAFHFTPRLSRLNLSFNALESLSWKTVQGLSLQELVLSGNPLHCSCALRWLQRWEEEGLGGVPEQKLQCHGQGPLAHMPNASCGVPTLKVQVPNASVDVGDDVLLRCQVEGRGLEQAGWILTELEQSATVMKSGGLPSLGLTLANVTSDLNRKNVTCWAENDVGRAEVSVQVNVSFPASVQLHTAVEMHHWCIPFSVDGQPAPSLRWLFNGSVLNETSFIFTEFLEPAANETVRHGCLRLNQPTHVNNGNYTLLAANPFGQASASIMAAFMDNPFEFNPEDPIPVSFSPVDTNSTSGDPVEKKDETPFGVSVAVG
Description: Direct binding studies: were done as described (Saragovi et al., 1998) using 6 ng/well of recombinant baculovirus TrkA-extracellular domain protein (TrkA-ECD) or control bovine serum albumin (BSA, Fraction V, Boehringer Mannheim) immobilized onto 96-well microtest plates. Wells were blocked with binding buffer (BB: PBS with 1% BSA) for 1 hour. Then, 50 ng/well of biotinylated D3 were added as primary reagent in BB for 40 min in the absence or presence of excess non-biotinylated D3 as competitor. Wells were washed 5 times with BB, and horseradish peroxidase (HRP)-coupled avidin (Sigma) was added as secondary reagent for 30 min. Plates were washed in BB, and peroxidase activity was determined colorimetrically using 2,2-azinobis (3-ethylbenzthiazoline sulfonic acid) (ABTS, Sigma). The optical density (OD) was measured at 414 nm in a Microplate reader (Bio-Rad). Assays were repeated at least three times, n=4.
Binding Competition: studies were as described for direct binding assays to TrkA-ECD, except that as primary reagent 50 ng anti-TrkA mAb 5C3/well were added in BB, in the presence or absence of D3 or controls as competitors as described (Saragovi et al., 1998). Wells were washed 5 times with BB, and HRP-coupled goat anti-mouse was added as secondary reagent for 30 min. Plates were washed in BB, and peroxidase activity were determined. Assays were repeated at least three times, n=4.

[2] = target: T4, HEK 293 cells expressing TrkB/TrkA IgG-C2 chimeric receptor (Homo sapiens, UniProt P04629+Q16620); test: Cell survival (MTT), HEK 293-TrkB/TrkA IgG-C2 chimera; format: cell-based; settings: HEK 293-TrkB/TrkA chimera, 72 hours;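 as to % Protection: 100% equals survival with optimal NGF at 1 nM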
T4 construct: The IgG-C2 domain of human TrkA was generated using unique restriction sites; expressed in transfected cells
T4 sequence (P04629 299-365 limits assumed, change not shown, one chain of several): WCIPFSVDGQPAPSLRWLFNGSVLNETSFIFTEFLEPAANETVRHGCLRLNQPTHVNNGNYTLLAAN
Source text: The IgG-C2 domain of human TrkA was generated using unique restriction sites in the primers to allow exchange with the corresponding rat TrkB domain. The chimeric receptors were constructed by subcloning the human TrkA IgG-C2 domain into the corresponding restriction sites of the rat trkB cDNA reported in a previous work (Perez et al., 1995). Chimeric constructs were confirmed by sequencing, and were cloned into the pCDNA3 expression vector that contains a selection gene providing resistance to neomycin (G418, GIBCO). HEK293 cells were transfected using the lipofectamine plus method (GIBCO), selected with neomycin (0.5 mg/ml) and at least 3 independent subclones were obtained by limiting dilution techniques (293-TrkB/A-IgC2 chimera).
(§3) Cell lines: 5,000 cells/well in protein-free media (PFHM-II, GIBCO, Toronto) containing 0.2% bovine serum albumin (BSA) (Crystalline fraction V, Sigma, St. Louis, Mo.) were seeded in 96 well plates (Falcon, Mississauga, Ontario). The cultures were untreated, or treated with the indicated test or control ligands. Cell viability was quantitated using the MTT assay after 56-72 hours of culture. […] The OD of untreated cells were subtracted.

TrkA-ECD [3] = target: T3, TrkA-ECD; test: ELISA and RIA binding assays of NGF•TrkA-ECD
DRG neuronal cultures = test: Morphometric analysis of DRG dissociated neurons (neurite outgrowth); format: cell-based, rat; settings: 8 days
Description: In FIG. 1 primary neuronal DRG cultures were treated as indicated for 8 days, and cell differentiation was studied morphometrically. Magnification 60×. Pictures representative of 3 independent experiments.
Fetal rat DRG primary cultures were established from Sprague Dawley day 17 rat embryos. All ganglia were dissected and dissociated first enzymatically with trypsin and then mechanically. Dissociated cells were cultured (10^5 cells/well) in 96 well plates pre-coated with collagen, and grown for a total of 8 days in Neuro Basal Medium containing N2 supplement (GIBCO, Toronto), antibiotics, and L-glutamine. These DRG cultures are ˜85% TrkA-expressing and are heavily dependent on TrkA signals for survival.
The effect of D3 on TrkA-mediated cellular differentiation was assessed using two independent assays: morphometric analysis of DRG dissociated neurons and induction of ChAT activity in septal neuronal cultures.

[4] = test system: TrkB-expressing HEK293 cells; test: Cell survival control, TrkB-expressing HEK293 cells; format: cell-based
Description: as §3, with “subtracted. The higher optical density of untreated primary cultures is likely due to cellular heterogeneity and to endogenous production of limiting amounts of growth factors.” for “subtracted.”

physchem = settings: water

T1 sequence (P04629 33-796): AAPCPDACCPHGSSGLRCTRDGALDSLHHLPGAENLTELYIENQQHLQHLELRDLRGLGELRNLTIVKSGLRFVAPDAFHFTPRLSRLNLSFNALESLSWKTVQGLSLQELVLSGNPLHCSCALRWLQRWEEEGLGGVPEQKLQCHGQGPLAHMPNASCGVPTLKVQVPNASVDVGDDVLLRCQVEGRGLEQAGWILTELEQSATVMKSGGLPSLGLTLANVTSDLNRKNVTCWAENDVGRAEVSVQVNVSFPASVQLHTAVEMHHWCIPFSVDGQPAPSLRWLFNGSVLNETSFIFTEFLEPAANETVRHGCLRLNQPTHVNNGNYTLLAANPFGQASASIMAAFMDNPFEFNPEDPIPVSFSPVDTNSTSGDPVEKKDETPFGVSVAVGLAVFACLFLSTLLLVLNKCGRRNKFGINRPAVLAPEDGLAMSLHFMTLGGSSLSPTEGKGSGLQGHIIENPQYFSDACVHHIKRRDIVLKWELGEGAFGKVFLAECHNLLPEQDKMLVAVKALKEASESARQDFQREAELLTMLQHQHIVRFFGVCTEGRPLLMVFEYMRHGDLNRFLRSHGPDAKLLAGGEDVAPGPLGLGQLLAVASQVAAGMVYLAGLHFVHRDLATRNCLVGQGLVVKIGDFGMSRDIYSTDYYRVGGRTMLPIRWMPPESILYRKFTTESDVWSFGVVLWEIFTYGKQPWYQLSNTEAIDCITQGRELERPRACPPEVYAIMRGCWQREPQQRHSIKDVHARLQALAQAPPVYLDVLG

NCCCC[C@@H]1NC(=O)[C@H](CCC(=O)O)NC(=O)c2cc([N+](=O)[O-])ccc2OCCC(C(=O)NCC(=O)O)NC1=O (some centres unmarked) [D3, EKHse-G-OH]
Kd (cell surface TrkA; estimated from experimental conditions, read-out: Kd for D3•TrkA interactions): ~2000 nM
IC50 (cell surface TrkA; intact 4-3.6 cells, on average, read-out: IC50, decrease of mAb 5C3•TrkA interactions): 4000 nM
% Maximal binding of mAb 5C3 (cell surface TrkA; competitor 0.20 μM): 95 ± 4%
% Maximal binding of mAb 5C3 (cell surface TrkA; competitor 1 μM): 80 ± 3%
% Maximal binding of mAb 5C3 (cell surface TrkA; competitor 5 μM): 53 ± 5%
% Maximal binding of mAb 5C3 (cell surface TrkA; competitor 40 μM): 33 ± 4%
% Maximal binding of mAb MC192 (p75 NGF receptor subunit): 101 ± 2%
Kd (TrkA-ECD [1]; calculated from the experimental IC50, read-out: Kd for D3•TrkA-ECD interactions): ~2000 nM
% Binding of mAb 5C3 to TrkA-ECD (TrkA-ECD [1]; competitor 0.05 μM): 100 ± 14%
% Binding of mAb 5C3 to TrkA-ECD (TrkA-ECD [1]; competitor 0.2 μM): 89 ± 8%
% Binding of mAb 5C3 to TrkA-ECD (TrkA-ECD [1]; competitor 1 μM): 64 ± 10%
% Binding of mAb 5C3 to TrkA-ECD (TrkA-ECD [1]; competitor 5 μM): 43 ± 12%
% Binding of mAb 5C3 to TrkA-ECD (TrkA-ECD [1]; competitor 20 μM): 38 ± 7%
% Binding of mAb 5C3 to TrkA-ECD (TrkA-ECD [1]; competitor 40 μM): 31 ± 4%
% Protection ([2]; compound 10 μM + 10 pM NGF): 42 ± 5%
Optical Density ([2]; compound 10 μM + 10 pM NGF): 165 ± 11
% Protection ([2]; compound 10 μM alone): 9 ± 3%
Optical Density ([2]; compound 10 μM alone): 69 ± 7
blocking of NGF•TrkA-ECD interactions (TrkA-ECD [3]): did not substantially block
neurite outgrowth (DRG neuronal cultures; D3 alone): undergo neurite outgrowth in response to D3
potentiation of NGF effect on neurite outgrowth (DRG neuronal cultures; D3 with NGF): potentiates the effect of NGF
protection from apoptosis [4]: neither D3 nor NGF protected
solubility (physchem): ≥ 5000 µg/mL
